From patent US20260125371A1, “METHOD FOR INHIBITING CLOSTRIDIOIDES DIFFICILE SPORE GERMINATION” (UNIVERSITY OF NOTRE DAME DU LAC, priority 2022, published 2026)
In brackets after ≈: the same amount, converted by molar mass. Like-named read-outs stand apart in the source and are kept apart here.

Test system: C. difficile ATCC 43255
Experiment: Determination of minimal-inhibitory concentrations (microdilution), C. difficile ATCC 43255
Type: cell-based, Clostridioides difficile
Details: for MIC: Clostridioides difficile
[1] = ATCC43255, 24 h, C. difficile ATCC 43255, 24 h, read-out: MIC (μg/mL) 24 h
[2] = ATCC43255, 48 h, C. difficile ATCC 43255, 48-h incubation, read-out: MIC (μg/mL) 48 h
[3] = C. difficile ATCC 43255, 48-h incubation

Compound | MIC [1] | MIC [2] | other results
Oc1cccc(/C=C/c2nc(-c3ccc(OC4CCCC4)cc3)no2)c1 [Compound 65, 3-(4-(Cyclopentyloxy)phenyl)-(E)-5-(3-hydroxystyryl)-1,2,4-oxadiazole] | > 128 µg/mL | > 128 µg/mL | –
Oc1ccc(-c2nc(-c3ccc(C(O)C(F)(F)F)cc3)no2)cc1 (stereo not shown) [Compound 108, 4-(3-(4-(2,2,2-Trifluoro-1-hydroxyethyl)phenyl)-1,2,4-oxadiazol-5-yl)phenol] | 32 µg/mL (≈ 95.2 µM) | 32 µg/mL (≈ 95.2 µM) | –
Fc1ccccc1-c1noc(-c2ccc3[nH]ccc3c2)n1 [Compound 125, 3-(2-Fluorophenyl)-5-(1H-indol-5-yl)-1,2,4-oxadiazole] | > 128 µg/mL | > 128 µg/mL | –
Fc1ccc2oc3ccc(-c4noc(-c5ccc6[nH]ccc6c5)n4)cc3c2c1 [Compound 121, 3-(8-Fluorodibenzo[b,d]furan-2-yl)-5-(1H-indol-5-yl)-1,2,4-oxadiazole] | > 128 µg/mL | > 128 µg/mL | –
Oc1ccc(-c2nnc(-c3ccc(OC4CCCC4)cc3)o2)cc1 [Compound 139, 4-(5-(4-(Cyclopentyloxy)phenyl)-1,3,4-oxadiazol-2-yl)phenol] | > 128 µg/mL | – | MIC (μg/mL) 48 h [3]: >128 µg/mL
C#CCOc1ccc(-c2noc(-c3ccc(O)cc3)n2)cc1 [Compound 88, 4-(3-(4-(Prop-2-yn-1-yloxy)phenyl)-1,2,4-oxadiazol-5-yl)phenol] | 16 µg/mL (≈ 54.7 µM) | 128 µg/mL (≈ 438 µM) | –
CN1CCC(Oc2ccc(-c3noc(-c4ncc([N+](=O)[O-])[nH]4)n3)cc2)C1.Cl (stereo not shown) [Compound 132, 3-(4-((1-Methylpyrrolidin-3-yl)oxy)phenyl)-5-(5-nitro-1H-imidazol-2-yl)-1,2,4-oxadiazole hydrochloride] | > 128 µg/mL | > 128 µg/mL | –
c1cc2cc(-c3nc(-c4ccc(OC5CCCC5)cc4)no3)ccc2[nH]1 [Compound 56, 3-(4-(Cyclopentyloxy)phenyl)-5-(1H-indol-5-yl)-1,2,4-oxadiazole] | > 128 µg/mL | > 128 µg/mL | MIC (μg/mL) 48 h [3]: >128 µg/mL
Oc1ccc(/C=C/c2nc(-c3ccc(OC4CCCC4)cc3)no2)cc1 [Compound 66, 3-(4-(Cyclopentyloxy)phenyl)-(E)-5-(4-hydroxystyryl)-1,2,4-oxadiazole] | 32 µg/mL (≈ 91.8 µM) | 64 µg/mL (≈ 184 µM) | –
C[C@@H](N)c1nc(-c2ccc(OC3CCCC3)cc2)no1 [Compound 61, (R)-1-(3-(4-(Cyclopentyloxy)phenyl)-1,2,4-oxadiazol-5-yl) ethan-1-amine] | > 128 µg/mL | > 128 µg/mL | –
O=C(c1ccc(-c2noc(-c3ccc(O)cc3)n2)cc1)C(F)(F)F [Compound 109, 5-(4-Hydroxyphenyl)-3-(4-(2,2,2-trifluoroacetyl)phenyl)-1,2,4-oxadiazole] | 8 µg/mL (≈ 23.9 µM) | 8 µg/mL (≈ 23.9 µM) | –
Oc1ccc(-c2nc(-c3ccc(Oc4ccccc4)c(Br)c3)no2)cc1 [Compound 79, 4-(3-(3-Bromo-4-phenoxyphenyl)-1,2,4-oxadiazol-5-yl)phenol] | > 128 µg/mL | – | MIC (μg/mL) 48 h [3]: >128 µg/mL
FC(F)(F)c1ccc(Oc2ccc(-c3noc(-c4ccncc4)n3)cc2)cc1 [Compound 23, 5-(Pyridin-4-yl)-3-(4-(4-(trifluoromethyl)phenoxy)phenyl)-1,2,4-oxadiazole] | > 128 µg/mL | > 128 µg/mL | –
FC(F)(F)c1ccc(Oc2ccc(-c3noc(-c4cn[nH]c4)n3)cc2)cc1 [Compound 33, 5-(1H-Pyrazol-4-yl)-3-(4-(4-(trifluoromethyl)phenoxy)phenyl)-1,2,4-oxadiazole] | > 128 µg/mL | > 128 µg/mL | –
Cl.O=[N+]([O-])c1c[nH]c(-c2nc(-c3ccc(OC4CCNCC4)cc3)no2)n1 [Compound 134, 5-(4-Nitro-1H-imidazol-2-yl)-3-(4-(piperidin-4-yloxy)phenyl)-1,2,4-oxadiazole hydrochloride] | > 128 µg/mL | > 128 µg/mL | –
C[C@@H](NC(=O)OC(C)(C)C)c1nc(-c2ccc(OC3CCCC3)cc2)no1 [Compound 60, tert-Butyl (R)-(1-(3-(4-(cyclopentyloxy)phenyl)-1,2,4-oxadiazol-5-yl)ethyl) carbamate] | – | – | MIC (μg/mL) 48 h [3]: >128 µg/mL; MIC (μg/mL) 24 h (C. difficile ATCC 43255, 24 h): >128 µg/mL
O=[N+]([O-])c1cn(CCO)c(-c2nc(-c3ccc(OC4CCCC4)cc3)no2)n1 [Compound 58, 3-(4-(Cyclopentyloxy)phenyl)-5-(1-(2-hydroxyethyl)-4-nitro-1H-imidazol-2-yl)-1,2,4-oxadiazole] | > 128 µg/mL | > 128 µg/mL | antibacterial activity against C. difficile (in words) (C. difficile ATCC43255): lost activity
c1cc2cc(-c3nc(-c4ccc5c(c4)CCN5)no3)ccc2[nH]1 [Compound 129, 5-(1H-Indol-5-yl)-3-(indolin-5-yl)-1,2,4-oxadiazole] | > 128 µg/mL | > 128 µg/mL | –

Compound | MIC [1] | MIC [2] | other results
O=c1[nH]c(-c2ccc(OC3CCCC3)cc2)no1 [Compound 69, 3-(4-(Cyclopentyloxy)phenyl)-1,2,4-oxadiazol-5 (4H)-one] | 64 µg/mL (≈ 260 µM) | 64 µg/mL (≈ 260 µM) | –
O=Cc1ccc(-c2noc(-c3ccc(O)cc3)n2)cc1 [Compound 107, 4-(5-(4-Hydroxyphenyl)-1,2,4-oxadiazol-3-yl)benzaldehyde] | 64 µg/mL (≈ 240 µM) | > 128 µg/mL | –
O=C(NNC(=O)c1ccc(OC2CCCC2)cc1)c1ccc(O)cc1 [Compound 138, 4-(Cyclopentyloxy)-N′-(4-hydroxybenzoyl)benzohydrazide] | > 128 µg/mL | > 128 µg/mL | –
FC(F)(F)c1ccc(Oc2ccc(-c3noc(-c4cc5ccccc5[nH]4)n3)cc2)cc1 [Compound 48, 5-(1H-Indol-2-yl)-3-(4-(4-(trifluoromethyl)phenoxy)phenyl)-1,2,4-oxadiazole] | > 128 µg/mL | > 128 µg/mL | –
Oc1ccc(-c2nc(-c3ccc(OC4CCCC=C4Br)cc3)no2)cc1 (stereo not shown) [Compound 78, 4-(3-(4-((2-Bromocyclohex-2-en-1-yl)oxy)phenyl)-1,2,4-oxadiazol-5-yl)phenol] | – | – | MIC (μg/mL) 48 h [3]: >128 µg/mL; MIC (ATCC43255, 24 h, read-out: MIC (μg/mL) 24 h): > 128 µg/mL; MIC (ATCC43255, 48 h, read-out: MIC (μg/mL) 48 h): > 128 µg/mL
Nc1nc(-c2ccc(OC3CCCC3)cc2)no1 [Compound 68, 3-(4-(Cyclopentyloxy)phenyl)-1,2,4-oxadiazol-5-amine] | > 128 µg/mL | > 128 µg/mL | –
CC(C)(C)OC(=O)N1CCC(Oc2ccc(-c3noc(-c4ncc([N+](=O)[O-])[nH]4)n3)cc2)CC1 [Compound 133, 3-(4-((1-(tert-Butoxycarbonyl)piperidin-4-yl)oxy)phenyl)-5-(5-nitro-1H-imidazol-2-yl)-1,2,4-oxadiazole] | > 128 µg/mL | > 128 µg/mL | –
Cn1c(-c2nc(-c3ccc(OC4CCCC4)cc3)no2)cnc1[N+](=O)[O-] [Compound 59, 3-(4-(Cyclopentyloxy)phenyl)-5-(1-methyl-2-nitro-1H-imidazol-5-yl)-1,2,4-oxadiazole] | 32 µg/mL (≈ 90.1 µM) | – | –
COC(OC)c1ccc(-c2noc(-c3ccc(O)cc3)n2)cc1 [Compound 106, 4-(3-(4-(Dimethoxymethyl)phenyl)-1,2,4-oxadiazol-5-yl)phenol] | 64 µg/mL (≈ 205 µM) | > 128 µg/mL | –
Oc1ccc(Nc2nc(-c3ccc(OC4CCCC4)cc3)no2)cc1 [Compound 64, 4-((3-(4-(Cyclopentyloxy)phenyl)-1,2,4-oxadiazol-5-yl)amino)phenol] | 16 µg/mL (≈ 47.4 µM) | 32 µg/mL (≈ 94.8 µM) | –
C#CCCOc1ccc(-c2noc(-c3ccc(O)cc3)n2)cc1 [Compound 89, 4-(3-(4-(But-3-yn-1-yloxy)phenyl)-1,2,4-oxadiazol-5-yl)phenol] | > 128 µg/mL | > 128 µg/mL | –
Clc1nc(-c2ccc(OC3CCCC3)cc2)no1 [Compound 70, 5-Chloro-3-(4-(cyclopentyloxy)phenyl)-1,2,4-oxadiazole] | > 128 µg/mL | > 128 µg/mL | –
O=[N+]([O-])c1ccc(-c2noc(-c3ccc4[nH]ccc4c3)n2)cc1 [Compound 126, 5-(1H-Indol-5-yl)-3-(4-nitrophenyl)-1,2,4-oxadiazole] | > 128 µg/mL | > 128 µg/mL | –
Oc1ccc(Cc2nc(-c3ccc(OC4CCCC4)cc3)no2)cc1 [Compound 63, 3-(4-(Cyclopentyloxy)phenyl)-5-(4-hydroxybenzyl)-1,2,4-oxadiazole] | 8 µg/mL (≈ 23.8 µM) | 16 µg/mL (≈ 47.6 µM) | –
O=[N+]([O-])c1ccc(-c2nc(-c3ccc(OC4CCCC4)cc3)no2)cc1 [Compound 50, 3-(4-(Cyclopentyloxy)phenyl)-5-(4-nitrophenyl)-1,2,4-oxadiazole] | > 128 µg/mL | – | MIC (μg/mL) 48 h [3]: >128 µg/mL
c1nc2ccc(-c3nc(-c4ccc(OC5CCCC5)cc4)no3)cc2[nH]1 [Compound 55, 5-(1H-Benzo[d]imidazol-6-yl)-3-(4-(cyclopentyloxy)phenyl)-1,2,4-oxadiazole] | 128 µg/mL (≈ 370 µM) | > 128 µg/mL | MIC (μg/mL) 48 h [3]: 128 µg/mL (≈ 370 µM)
C[C@@H](NC(=O)OC(C)(C)C)C(=O)N[C@H](C)c1nc(-c2ccc(OC3CCCC3)cc2)no1 [Compound 62, 5-((R)-1-((R)-2-(Boc-amino)propanamido)ethyl)-3-(4-(cyclopentyloxy)phenyl)-1,2,4-oxadiazole] | > 128 µg/mL | > 128 µg/mL | –
